Assay results published in the supplement of paper PMC10307832.

Key:
Assay in all cases: relative viability (nuclei count vs DMSO), 5 days (fraction); higher = more cells survive
[1] = compound: COc1cc2nccc(Oc3ccc(NC(=O)C4(C(=O)Nc5ccc(F)cc5)CC4)cc3)c2cc1OC [Cabozantinib] + Cc1cc(Nc2cc(N3CCN(C)CC3)nc(Sc3ccc(NC(=O)C4CC4)cc3)n2)n[nH]1 [Tozasertib] (partner 0.1 µM)
Method in brief: (§1)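 After 5 days of treatment, lung cancer cells in 1536-well plates were fixed and stained in a single step (final 0.05% Triton X-100, 1% formaldehyde, 1 ug/ml Hoechst) and their nuclei counted on 4× images. Treatment had been applied by pin tool the day after seeding as one drug alone or as a fixed anchor-drug dose with five library-drug doses (not always all listed) in √10 steps. Relative viability is the nuclei count of treated wells divided by that of vehicle wells, and values are medians of duplicate plates.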

Zosuquidar + Palbociclib = compound: O[C@@H](COc1cccc2ncccc12)CN1CCN([C@@H]2c3ccccc3[C@@H]3[C@H](c4ccccc42)C3(F)F)CC1 [Zosuquidar] + CC(=O)c1c(C)c2cnc(Nc3ccc(N4CCNCC4)cn3)nc2n(C2CCCC2)c1=O [Palbociclib] (partner 0.5 µM)
Method in brief: as §1

Zosuquidar + Alpelisib = compound: O[C@@H](COc1cccc2ncccc12)CN1CCN([C@@H]2c3ccccc3[C@@H]3[C@H](c4ccccc42)C3(F)F)CC1 [Zosuquidar] + Cc1nc(NC(=O)N2CCC[C@H]2C(N)=O)sc1-c1ccnc(C(C)(C)C(F)(F)F)c1 [Alpelisib] (partner 2 µM)
Method in brief: as §1

Zosuquidar + Decitabine = compound: O[C@@H](COc1cccc2ncccc12)CN1CCN([C@@H]2c3ccccc3[C@@H]3[C@H](c4ccccc42)C3(F)F)CC1 [Zosuquidar] + Nc1ncn([C@H]2C[C@H](O)[C@@H](CO)O2)c(=O)n1 [Decitabine] (partner 2 µM)
Method in brief: as §1

| Cell Line | relative viability ([1]; first compound 0.02 µM) | relative viability ([1]; first compound 0.06325 µM) | relative viability ([1]; first compound 0.2 µM) | relative viability ([1]; first compound 0.6325 µM) | relative viability ([1]; first compound 2 µM) | relative viability (Zosuquidar + Palbociclib; first compound 0.01 µM) | relative viability (Zosuquidar + Palbociclib; first compound 0.03162 µM) | relative viability (Zosuquidar + Palbociclib; first compound 0.1 µM) | relative viability (Zosuquidar + Palbociclib; first compound 0.3162 µM) | relative viability (Zosuquidar + Palbociclib; first compound 1 µM) | relative viability (Zosuquidar + Alpelisib; first compound 0.01 µM) | relative viability (Zosuquidar + Alpelisib; first compound 0.03162 µM) | relative viability (Zosuquidar + Alpelisib; first compound 0.1 µM) | relative viability (Zosuquidar + Alpelisib; first compound 0.3162 µM) | relative viability (Zosuquidar + Alpelisib; first compound 1 µM) | relative viability (Zosuquidar + Decitabine; first compound 0.01 µM) | relative viability (Zosuquidar + Decitabine; first compound 0.03162 µM) | relative viability (Zosuquidar + Decitabine; first compound 0.1 µM) | relative viability (Zosuquidar + Decitabine; first compound 0.3162 µM) | relative viability (Zosuquidar + Decitabine; first compound 1 µM) |
| --- | --- | --- | --- | --- | --- | --- | --- | --- | --- | --- | --- | --- | --- | --- | --- | --- | --- | --- | --- | --- |
| NCI-H1666 | 0.628 | 0.644 | 0.622 | 0.619 | 0.673 | 0.56 | 0.715 | 0.668 | 0.757 | 0.648 | 0.876 | 1.04 | 1.04 | 0.912 | 0.863 | 0.766 | 0.788 | 0.671 | 0.789 | 0.678 |
| HCC-15 | 0.462 | 0.432 | 0.437 | 0.44 | 0.267 | 0.721 | 0.689 | 0.702 | 0.723 | 0.715 | 0.922 | 0.88 | 0.869 | 0.932 | 0.869 | 0.64 | 0.575 | 0.599 | 0.711 | 0.635 |
| LCLC-103H | 0.552 | 0.471 | 0.474 | 0.486 | 0.391 | 0.453 | 0.717 | 0.513 | 0.489 | 0.482 | 1.02 | 1.12 | 1.01 | 1.02 | 0.926 | 0.803 | 0.724 | 0.787 | 0.739 | 0.772 |
| NCI-H2405 | 0.743 | 0.856 | 0.777 | 0.789 | 0.667 | 0.565 | 0.528 | 0.555 | 0.539 | 0.489 | 0.968 | 0.745 | 0.605 | 0.972 | 0.837 | 0.737 | 0.777 | 0.734 | 0.767 | 0.758 |
| NCI-H1915 | 0.46 | 0.447 | 0.471 | 0.435 | 0.416 | 0.501 | 0.542 | 0.501 | 0.635 | 0.507 | 1.04 | 1.1 | 0.989 | 1.06 | 1.08 | 0.278 | 0.252 | 0.279 | 0.288 | 0.269 |
| NCI-H661 | 0.374 | 0.361 | 0.388 | 0.393 | 0.375 | 0.404 | 0.4 | 0.415 | 0.416 | 0.408 | 0.48 | 0.621 | 0.408 | 0.614 | 0.703 | 0.557 | 0.54 | 0.595 | 0.516 | 0.523 |
| NCI-H647 | 0.483 | 0.195 | 0.421 | 0.334 | 0.203 | 0.386 | 0.406 | 0.452 | 0.377 | 0.361 | 1.25 | 1.12 | 1.28 | 1.11 | 1.39 | 0.396 | 0.444 | 0.429 | 0.378 | 0.318 |
| HCC-366 | 0.705 | 0.108 | 0.101 | 0.065 | 0.0583 | 0.322 | 0.402 | 0.355 | 0.394 | 0.338 | 0.519 | 0.449 | 0.337 | 0.438 | 0.401 | 0.322 | 0.291 | 0.429 | 0.515 | 0.277 |
| NCI-H2087 | 0.271 | 0.24 | 0.225 | 0.248 | 0.204 | 0.19 | 0.25 | 0.243 | 0.205 | 0.249 | 1 | 1.28 | 1.2 | 1.19 | 1.15 | 0.262 | 0.3 | 0.305 | 0.206 | 0.33 |
| SK-LU-1 | 0.414 | 0.371 | 0.378 | 0.342 | 0.299 | 0.396 | 0.381 | 0.408 | 0.432 | 0.396 | 0.954 | 1.04 | 1.17 | 1.26 | 0.895 | 0.652 | 0.66 | 0.684 | 0.679 | 0.638 |
| HOP-62 | 0.398 | 0.388 | 0.378 | 0.376 | 0.346 | 0.444 | 0.535 | 0.444 | 0.426 | 0.401 | 1.05 | 0.79 | 0.907 | 1.08 | 0.988 | 0.215 | 0.223 | 0.25 | 0.203 | 0.21 |
| NCI-H2126 | 0.865 | 0.937 | 0.816 | 0.814 | 0.848 | 0.349 | 0.339 | 0.351 | 0.341 | 0.351 | 0.755 | 0.741 | 0.554 | 0.837 | 0.797 | 0.571 | 0.592 | 0.624 | 0.627 | 0.538 |
| NCI-H441 | 0.646 | 0.72 | 0.673 | 0.509 | 0.649 | 0.239 | 0.223 | 0.216 | 0.281 | 0.242 | 0.998 | 0.766 | 0.732 | – | 0.591 | 0.234 | 0.249 | 0.235 | 0.248 | 0.251 |
| NCI-H2170 | 0.738 | 0.8 | 0.733 | 0.748 | 0.734 | 0.364 | 0.42 | 0.397 | 0.426 | 0.379 | 0.799 | 0.786 | 0.774 | 0.821 | 0.769 | 0.451 | 0.476 | 0.482 | 0.466 | 0.512 |
| SW 1573 | 0.149 | 0.146 | 0.18 | 0.148 | 0.177 | 0.44 | 0.4 | 0.541 | 0.405 | 0.372 | 0.721 | 0.739 | 0.651 | 0.89 | 0.8 | 0.372 | 0.508 | 0.568 | 0.598 | 0.591 |
| H3255 | 0.605 | 1.34 | – | 0.471 | 0.775 | 0.306 | 0.335 | 0.32 | 0.33 | 0.33 | 0.712 | 0.769 | 0.492 | 0.797 | 0.689 | 0.559 | 0.592 | 0.497 | 0.696 | 0.716 |
